Experimental data taken from US12661353B2, “SPT5 inhibitors and uses thereof” (Yeda Research and Development Co. Ltd., priority 2020, dated 2026).

Experiments:
GDF15 = GDF15 mRNA levels, HeLa, qPCR; assay type: cell-based, human
Protocol: RNA analysis—Total RNA was extracted using Tri-reagent (Bio-Lab Chemicals) and Direct-Zol™ RNA MiniPrep kit (Zymo Research). Following, cDNA was synthesized from […] of total RNA using a High-Capacity cDNA Reverse Transcription Kit (ABI, Thermo Fisher Scientific). cDNA samples were analyzed by quantitative PCR (qPCR) in a ViiA 7 Real-Time PCR System using Fast qPCRBIO SYBR Green Mix (PCR Biosystems).
GDF15 is a member of the TGF-β superfamily and is associated with regulation of body-weight and food intake in humans and rodents (Emmerson et al., 2017; Hsu et al., 2017; Mullican et al., 2017; Tsai et al., 2018; Yang et al., 2017). […] To test this possibility, GDF15 expression was analyzed following 2 and 24 hours treatment with SPI-21. […] The dramatic elevation of GDF15 was also seen by other identified SPIs (FIG. 4G) and was not limited to HeLa cells but was also detected in other human and mouse cell lines (FIG. 4H). Thus, the utilization of SPIs enables distinguishing between temporary and constitutive Spt5-regulated genes and unveiled a previously unknown but significant role of Spt5 in the control of an important mammalian metabolic pathway via GDF15.

mutant (Q111) Htt = assay: Newly synthesized Htt transcripts, 4sU metabolic labeling, Q111 cells; assay type: cell-based, mouse; conditions: 4sU for 2 hours
Protocol: Metabolic labeling of newly synthesized RNA with 4-thiouridine (4sU)—STHdh Q111 and STHdh Q7 cells (collected from 10 cm dishes) were treated for 30 minutes with DMSO (vehicle control) or the tested SPI compound (e.g., SPJ-21). Following, 4-thiouridine (4sU, 150 μM final concentration) was added for additional 2 hours. The labeling was terminated by removing the 4sU-containing medium and washing the cells 3 times with phosphate-buffered saline (PBS). Total RNA was extracted as described above. […]
Huntington's disease (HD) is an inherited genetic disorder caused by expansion trinucleotide CAG repeats (36 and higher) encoding glutamine (Q) in the huntingtin (Htt) gene. […] The two cell lines were treated for 48 hours with the identified SPIs and following the levels of Htt mRNA were determined. […] Moreover, the levels measured from the second exon relative to the first were fairly higher in Q7 compared to Q111 and this small difference was kept all along the gene. […]
In assays conducted for showing that the selective effect on mutant Htt is at the transcription level, the cells were metabolically labeled with 4-thio-uridine (4sU) for 2 hours in the presence of DMSO of the indicated SPI analogs. […] Newly synthesized Htt transcript levels were determined by RT-qPCR.

His-eIF4E = target: T1, His-eIF4E (Homo sapiens, UniProt P06730); assay: Binding assay by intrinsic fluorescence of His-eIF4E (negative control); conditions: negative control protein
T1 construct: His tag; made in house; host or cells: E. coli; purified by nickel agarose beads
T1 sequence (P06730 whole entry): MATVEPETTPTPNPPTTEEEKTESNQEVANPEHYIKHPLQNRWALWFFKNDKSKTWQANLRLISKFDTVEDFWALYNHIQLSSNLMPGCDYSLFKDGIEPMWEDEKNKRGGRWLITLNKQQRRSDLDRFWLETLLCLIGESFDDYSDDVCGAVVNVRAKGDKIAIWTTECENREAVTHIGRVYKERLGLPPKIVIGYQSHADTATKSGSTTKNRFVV
Protocol: Binding assay—In order to measure binding of the indicated compound to Spt5 and/or Pol II; Spt5-Spt4 or Rpb1 fused to a histidine (His) tag were expressed in E. coli (SEQ ID Nos: 2-3, 5-6 and 81) and purified on nickel agarose beads as described in Ashkenazi et al. 2016. The proteins were incubated for 10 minutes with increasing concentrations of the indicated compound in a black 384 wells microplate in a total volume of 20 μl. Binding was assessed by measuring the changes in the intrinsic fluorescence (280 nm) using Cytation™ 5 (BioTek).
Direct interaction with either the Spt5 or the Rpb1 CC domain of SPI-21 and SPI-18 was further validated. His-Rpb1 and His-Spt5 (fused to Spt4 to increase its stability) and His-eIF4E, used as a negative control, were each expressed in E. coli and purified by nickel agarose beads. Using the purified proteins, fluorescence intensity measurements were performed in the presence of increasing concentrations of SPI-21 and SPI-18. This method analyzes binding by monitoring the changes in the intrinsic fluorescence of the proteins as a consequence of conformational changes. Spt5, Rpb1, and eIF4E display significant intrinsic fluorescence, as expected from the presence of aromatic residues in all of them. […] These findings are consistent with the direct interaction of the identified SPI compounds with the Spt5 and Rpb1 proteins.

COc1ccc(C=CC(=O)c2cc(O)ccc2O)cc1 [SPI-21]
GDF15 up-regulation (GDF15; 2 hours treatment): moderately up-regulated
GDF15 up-regulation (GDF15; 24 hours treatment): about 100 fold
levels of newly synthesized Q111 Htt (mutant (Q111) Htt): diminished
effect on intrinsic fluorescence of eIF4E (His-eIF4E): no significant effect
